Our source for the TGI and GI50 values is PubChem BioAssay (NCI).

Holding throughout (experiment): NCI anticancer screen, dose series, 48 h
For assay [1], the system named is HT29 colon.
For assay [2], the system named is SNB-75 CNS.
Assay [3] has as its system OVCAR-3 ovarian.
In assay [4] the test system is RPMI-8226 leukemia.
Assay [5] concerns COLO 205 colon.
Assay [6] deals with A549 NSCLC.
The test system of assay [7] is CAKI-1 renal.
For assay [8], the system named is NCI-H23 lung.
For assay [9], the system named is K-562 leukemia.
Assay [10] concerns SF-268 CNS.

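Values below derive from 48-hour exposures of cells grown in 96-well plates, with endpoints linearly interpolated between the two concentrations bracketing the appropriate inhibition level. GI50 = concentration required for 50% inhibition of growth. TGI: concentration producing complete growth inhibition.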 Where only a bound is given, the exact number is not on record here.

Consider `O=C(O)C1C2CCC(O2)C1C(=O)NCc1cccnc1` (centres undefined), for which the TGI in assay [1], in [2], in assay [3], in assay [4], in assay [5] and in assay [6] was more than 100 µM throughout. The TGI in assay [7] and in assay [8] was more than 100 µM throughout.

Consider `C=C1CCC2(C(C)=O)COC1(C)O2` (centres undefined), for which the TGI in assay [1], in assay [2], in [3], in assay [4], in [5] and in [6] was more than 100 µM throughout. In addition, the TGI is more than 100 µM in assay [9] and more than 10 µM in assay [8].

As to `CCOC(=O)CP(=S)(S)c1ccccc1` (centres undefined), the TGI in assay [1], in assay [10], in assay [5], in [6], in [7] and in assay [9] was more than 100 µM throughout. This compound had a TGI in assay [8] of more than 100 µM.

Consider `Cc1nc2cc(Nc3nc(Nc4ccc(F)cc4)nc(N4CCCC4)n3)ccc2n1Cc1ccccc1`, for which the GI50 in assay [1] was 1.93 µM; in [10] it was 1.94 µM; in [2], 1.58 µM; in assay [3] it was 1.77 µM; in [4] it was 1.86 µM; in [5], 1.79 µM. Further, the values for the GI50 in assay [6] and in [8] were 2.05 µM and 2.2 µM, respectively. In addition, the TGI in [1] turned out to be 3.89 µM; in assay [10], 3.9 µM; in assay [2] it was 3.45 µM; in [3], 3.28 µM; in assay [4], 4.55 µM; in assay [5] it was 3.48 µM. Besides, the TGI in assay [6] amounted to 4.63 µM; in [8] it was 5.31 µM.

Consider `O=C1CCCCCCCCCCOC(=O)CCCCCCCCCCO1`, for which the TGI in [1], in assay [10], in assay [2], in [3], in assay [5] and in assay [6] was more than 100 µM in each case. The TGI in [7], in assay [9] and in [8] was more than 100 µM throughout.

With `COC(=O)C1=Cc2cn(S(=O)(=O)c3ccc(C)cc3)c3cccc(c23)C(C=C(C)C)N1C(C)=O` (centres undefined), the TGI in assay [1] is more than 100 µM; in [10], more than 100 µM; in assay [2], more than 100 µM; in assay [3], more than 100 µM; in assay [5] it was 18.3 µM; in [6] it was more than 100 µM. Besides, the values for the TGI in assay [7], in [9] and in [8] were 79.6 µM, more than 100 µM and more than 100 µM, respectively.

As for `C1C[S][Ge]2([S]CCS1)[S]CCSCC[S]2`, the GI50 was more than 100 µM in [10]; 18.9 µM in [2]; more than 100 µM in assay [4]; more than 100 µM in assay [5]; more than 100 µM in assay [7]; more than 100 µM in assay [9]. The GI50 in assay [8] is more than 100 µM. Also, the TGI in assay [10] was more than 100 µM; in assay [2] it was 95 µM; in assay [4], more than 100 µM; in assay [5] it was more than 100 µM; in [7], more than 100 µM; in assay [9], more than 100 µM. This compound gave a TGI in assay [8] of more than 100 µM.

For the compound `CC/C(=C(/CC)c1ccc(O)cc1)c1ccc(O)cc1`, the GI50 in assay [1] is 5.16 µM; in [10] it was 5.5 µM; in assay [2] it was 2.2 µM; in [3], 2.72 µM; in [5], 6.31 µM; in assay [6] it was 4.59 µM. The GI50 in assay [7] was 4.22 µM; in assay [8] it was 5.76 µM. For the same compound, the TGI in assay [1] was determined as 17.9 µM; in assay [10], 20.8 µM; in [2], 6.48 µM; in assay [3], 7 µM; in assay [5] it was 19.7 µM; in assay [6] it was 20.5 µM. Moreover, the values for the TGI in assay [7] and in [8] were 27.8 µM and 23 µM, respectively.

Regarding `NNc1ncnc2cccc(Cl)c12`, the TGI in assay [1], in assay [10], in assay [2], in [3], in [5] and in [6] was more than 100 µM throughout. For the same compound, the TGI in assay [7], in assay [9] and in assay [8] was more than 100 µM each time.

Consider `CCOC(=O)Cn1c(=O)[nH]c(=O)c2[nH]cnc21`, for which the TGI in assay [1], in [10], in assay [2], in assay [3], in assay [5] and in assay [6] was more than 100 µM each time. For the same compound, the TGI in [9] and in assay [8] was more than 100 µM in each case.

As for `C=C(C)[C@@H]1CC[C@]2(C(=O)N3CCN(C)CC3)CC[C@]3(C)[C@H](CC[C@@H]4[C@@]5(C)CC[C@H](O)C(C)(C)[C@@H]5CC[C@]43C)[C@@H]12`, the GI50 was 1.41 µM in assay [1]; 2.02 µM in [10]; 1.64 µM in assay [2]; 1.9 µM in assay [3]; 1.89 µM in [5]; 1.88 µM in assay [6]. Moreover, the GI50 in [7] was 1.59 µM; in [8], 1.92 µM. The TGI in assay [1] came out at 3.09 µM; in assay [10] it was 4.42 µM; in [2], 3.27 µM; in [3] it was 3.49 µM; in assay [5], 4.26 µM; in assay [6] it was 3.88 µM. For the same compound, the TGI in assay [7] amounted to 3.05 µM; in assay [8], 3.82 µM.

In the case of `COc1cc(=O)oc(/C=C/CO)c1C`, the TGI in assay [1], in assay [10], in assay [2], in [3], in [5] and in assay [6] was more than 100 µM each time. Further, the TGI in [7], in [9] and in [8] was more than 100 µM throughout.
